“And” between values parts separate entries of the source, which are not always exact repeats. Equal values may be shown once.
Columns and labels:
[1] = target: T1, human recombinant MAO-A (Homo sapiens, UniProt P21397); test: MAO-Glo MAO-A inhibition assay; format: biochemical; conditions: 100 µM
T1 construct: purchased Sigma-Aldrich
T1 sequence (P21397 1-527): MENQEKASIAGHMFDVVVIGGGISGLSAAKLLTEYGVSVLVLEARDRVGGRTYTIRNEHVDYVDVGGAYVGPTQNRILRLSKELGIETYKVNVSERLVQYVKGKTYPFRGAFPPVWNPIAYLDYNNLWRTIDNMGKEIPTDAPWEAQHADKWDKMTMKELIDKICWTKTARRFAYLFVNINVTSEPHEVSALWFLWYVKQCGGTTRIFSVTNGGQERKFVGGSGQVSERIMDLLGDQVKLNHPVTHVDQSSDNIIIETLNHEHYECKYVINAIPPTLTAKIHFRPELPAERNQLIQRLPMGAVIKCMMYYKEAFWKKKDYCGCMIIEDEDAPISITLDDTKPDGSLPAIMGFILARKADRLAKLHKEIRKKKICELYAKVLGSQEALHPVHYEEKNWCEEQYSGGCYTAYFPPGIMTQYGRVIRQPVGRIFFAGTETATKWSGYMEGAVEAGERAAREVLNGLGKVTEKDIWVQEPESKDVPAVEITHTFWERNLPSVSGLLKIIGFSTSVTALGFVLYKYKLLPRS
Description: (§1) MAO inhibition assays were performed using a MAO-Glo™ Assay kit (Promega) according to the manufacturer’s instructions. Briefly, 1 µg of human recombinant MAO-A and MAO-B enzyme isoforms were incubated with 160 and 16 µM of MAO substrates, respectively. […] The enzyme reaction was quenched by the addition of a luciferin detection reagent. […] An equal volume of dimethyl sulfoxide (0.1%) was added to the enzyme assay as a control. After 1 h of incubation, the luminescence was measured with a multimode microplate reader (Synergy HT, BioTek, Winooski, VT, USA) to determine the MAO enzyme activities. Initially, the inhibition potential of all the test compounds was evaluated at a concentration of 100 μM. The control reaction (with no inhibitor) with vehicle (DMSO 0.1%) was set at 100% activity. To determine IC50 of the test compounds, the dose dependent enzyme assays were performed. We used range of 0.1 to 50 μM concentrations for MAO-A and 0.1 to 200 μM concentrations of test compounds for the MAO-B enzyme activities. The type of enzyme inhibition was determined using variable concentrations of MAO-A substrate (10–360 µM) and MAO-B substrate (2–64 µM) for the respective enzyme assay. […] A Lineweaver–Burk double reciprocal plot was generated, and the mode of inhibition was determined by visual examination of the plot. The slope of the reciprocal plots was plotted against the inhibitor concentrations and determined the x-axis intercept that represented the inhibitor constant, Ki value.

[2] = target: T2, human recombinant MAO-B (Homo sapiens, UniProt P27338); test: MAO-Glo MAO-B inhibition assay; format: biochemical
T2 construct: purchased Sigma-Aldrich
T2 sequence (P27338 1-520): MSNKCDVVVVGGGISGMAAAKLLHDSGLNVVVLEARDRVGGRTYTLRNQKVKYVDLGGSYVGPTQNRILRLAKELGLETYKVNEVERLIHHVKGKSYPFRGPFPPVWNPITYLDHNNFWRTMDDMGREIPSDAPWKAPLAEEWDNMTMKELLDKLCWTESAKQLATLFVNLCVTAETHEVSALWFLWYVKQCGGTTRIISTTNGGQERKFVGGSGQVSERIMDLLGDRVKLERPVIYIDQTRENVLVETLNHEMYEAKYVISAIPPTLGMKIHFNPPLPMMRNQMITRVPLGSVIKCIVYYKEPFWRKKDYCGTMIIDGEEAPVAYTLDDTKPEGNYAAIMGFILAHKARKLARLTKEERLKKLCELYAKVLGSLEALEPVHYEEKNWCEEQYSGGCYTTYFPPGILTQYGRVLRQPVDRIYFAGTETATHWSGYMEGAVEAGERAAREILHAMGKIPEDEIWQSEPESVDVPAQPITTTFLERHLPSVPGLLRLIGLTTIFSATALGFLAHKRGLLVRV
Description: as §1

inhibition of MAO-A enzyme activity ([1]; compared to vehicle): failed to inhibit
inhibition at 100 µM ([2]; 100 μM): 20 to 30%
remaining activity at 100 µM ([2]; 100 µM (Figure 1C), N=1-3, read-out: MAO-B enzyme assay, Percent of control): 88.7%
Structure (SMILES): O=c1oc2c(O)c(O)cc3c(=O)oc4c(O)c(O)cc1c4c23 [EA, ellagic acid]
MAO-A enzyme assay, Percent of control ([1]; 100 µM (Figure 1A), N=1-3): 80.5551% of control and 100.559% of control and 100.148% of control
MAO-B enzyme assay, Percent of control ([2]; 100 µM (Figure 1C), N=1-3, 100 µM): 89.6601% of control and 87.5901% of control
